The text below walks through data of US11497751B2, “Modulators of Rho-associated protein kinase” (Redx Pharma PLC, priority 2018, dated 2022).

In this assay the target is T1, N-terminal 6His-tagged ROCK2 catalytic domain 11-552 (Homo sapiens, UniProt O75116).
T1 construct: N-terminal 6His-tagged ROCK2 catalytic domain 11-552; 6His (N); purchased Dundee University, UK; host or cells: baculovirus expression system
T1 sequence (O75116 11-552): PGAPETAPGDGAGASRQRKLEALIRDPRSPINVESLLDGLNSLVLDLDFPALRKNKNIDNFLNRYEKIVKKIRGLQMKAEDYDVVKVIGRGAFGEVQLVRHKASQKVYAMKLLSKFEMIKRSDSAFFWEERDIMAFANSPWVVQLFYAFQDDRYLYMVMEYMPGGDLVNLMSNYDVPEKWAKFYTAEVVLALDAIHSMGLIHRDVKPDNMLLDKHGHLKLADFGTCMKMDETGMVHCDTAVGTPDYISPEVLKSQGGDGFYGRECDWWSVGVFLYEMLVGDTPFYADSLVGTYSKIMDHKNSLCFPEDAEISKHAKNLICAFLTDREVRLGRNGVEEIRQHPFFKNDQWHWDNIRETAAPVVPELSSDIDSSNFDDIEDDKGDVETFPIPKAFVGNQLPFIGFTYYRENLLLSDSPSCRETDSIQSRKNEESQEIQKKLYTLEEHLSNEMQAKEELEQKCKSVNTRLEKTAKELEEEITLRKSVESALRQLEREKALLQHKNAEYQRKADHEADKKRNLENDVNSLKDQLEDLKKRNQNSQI
Kind of assay: ROCK2 binding activity: ROCK2 inhibition, ADP-Glo Kinase Assay. The format is biochemical. Particulars: 1.25 nM ROCK2, 100 μM long S6 peptide, 20 μM ATP; 1 hour pre-incubation; read-out: ADP-Glo kinase activity assay ROCK2 Category. The procedure:
Assay for ROCK2 inhibition was performed using the protein construct N-terminal 6His-tagged ROCK2 catalytic domain 11-552 (Dundee University, UK). Protein was purified from a baculovirus expression system. Long S6 peptide ([…]) was used as substrate. Kinase reactions were carried out in 15 μl volume in a 96-well plate (black, half area) using 1.25 nM constitutively active ROCK2 kinase, 100 μM long S6 peptide, 20 μM ATP and test compound in DMSO (or DMSO only for controls). The final concentration of DMSO was 1%. Assay buffer was 50 mM HEPES pH 7.5 supplemented with 0.2 mM EDTA, 10 mM magnesium acetate, 0.01% Tween-20, 1 mM DTT and 0.01% BSA. Test compounds were pre-incubated with ROCK2 kinase for 1 hour before addition of ATP and long S6 peptide. After incubation for a further 1 hour, the amount of ADP produced was measured using ADP-Glo Kinase Assay (Promega) as per manufacturer's instructions. The luminescence was measured on a PHERAstar FS (BMG Labtech). The concentration of test compound required to inhibit ADP production by 50% (the IC50) was calculated using a four-parameter logistic function with software by Dotmatics.
The category “+” refers to compounds with a ROCK2 IC50 value of >10 μM. The category “++” refers to compounds with a ROCK2 IC50 value of 10 to 3 μM. The category “+++” refers to compounds with a ROCK2 IC50 value of 3 to 0.3 μM. The category “++++” refers to compounds with a ROCK2 IC50 value of <0.3 μM.
Background: ADP-Glo turns the ADP formed in a reaction into a luminescent signal.
`COc1cc(-c2nc(Nc3ccc4[nH]ncc4c3)n(C)n2)ccc1OCC(=O)NC(C)C(F)(F)F` (stereo not drawn) [Example 235, 2-[4-[5-(1H-indazol-5-ylamino)-1-methyl-1,2,4-triazol-3-yl]-2-methoxy-phenoxy]-N-(2,2,2-trifluoro-1-methyl-ethyl)acetamide]: the IC50 was less than 300 nM. Take `CC(C)NC(=O)COc1ccc(-c2nc(Nc3ccc4[nH]ncc4c3Cl)n(C)n2)c(C#N)c1` [Example 351]: the IC50 is less than 300 nM.

Turning to `Cn1ccc(NC(=O)c2ccc(-c3nc(Nc4ccc5[nH]ncc5c4C4CC4)n(C)n3)cc2)n1` [Example 339], the IC50 is less than 300 nM. Take `COc1cc(-c2nc(Nc3ccc4[nH]ncc4c3C)n(C)n2)ccc1OCC(=O)NC1CCNC1` (stereo not drawn) [Example 141]: the IC50 is less than 300 nM. In the case of `CCNC(=O)c1ccc(-c2nc(Nc3ccc4[nH]ncc4c3Cl)n(C)n2)cc1C` [Example 346] it was less than 300 nM; in that of `COc1cc(-c2nnc(Nc3ccc4[nH]ncc4c3)[nH]2)ccc1OCC(=O)NC(C)C` [Example 8], less than 300 nM.

For `CC(C)NC(=O)c1ccc(-c2nc(Nc3ccc4[nH]ncc4c3C3CC3)n(C)n2)cc1` [Example 295], the IC50 was less than 300 nM. In the case of `O=C(COc1ccc(-c2nnc(Nc3ccc4[nH]ncc4c3)[nH]2)cc1)N[C@@H]1CCNC1` [Example 157] it was less than 300 nM; in that of `Cn1nc(-c2ccc(C(=O)N3CCOCC3)cc2)nc1Nc1ccc2[nH]ncc2c1Cl` [Example 61], 300 to 3000 nM. With `Cc1cc(-c2nc(Nc3ccc4[nH]ncc4c3C3CC3)n(C)n2)ccc1C(=O)NCC(F)(F)F` [Example 276] the figure was less than 300 nM; with `Cc1cc(-c2nc(Nc3ccc4[nH]ncc4c3C)n(CC(C)C)n2)ccc1C(=O)NCC(F)(F)F` [Example 451], less than 300 nM. Regarding `CC(C)NC(=O)COc1ccc(-c2nc(Nc3ccc4[nH]ncc4c3Cl)n(C)n2)cc1C#N` [Example 349], the IC50 was less than 300 nM. In the case of `CC(=O)NCCOc1ccc(-c2nnc(Nc3ccc4[nH]ncc4c3)[nH]2)cc1` [Example 221] it was 300 to 3000 nM; in that of `O=C(COc1ccc(-c2nnc(Nc3ccc4[nH]ncc4c3)[nH]2)cc1)NC1CCC1` [Example 161], less than 300 nM. With `Cn1nc(-c2ccc(C(=O)NC3CC3)cc2)nc1Nc1ccc2[nH]ncc2c1C1CC1` [Example 344, N-Cyclopropyl-4-[5-[(4-cyclopropyl-1H-indazol-5-yl)amino]-1-methyl-1,2,4-triazol-3-yl]benzamide] the figure was less than 300 nM. In the case of `COc1cc(-c2nc(Nc3ccc4[nH]ncc4c3Cl)n(C)n2)ccc1O` [Example 101] it was less than 300 nM; in that of `COc1cc(-c2nc(Nc3ccc4[nH]ncc4c3C)n(C)n2)ccc1C(=O)NC1CC1` [Example 182], less than 300 nM; in that of `CCC(=O)Nc1ccc(-c2nc(Nc3ccc4[nH]ncc4c3Cl)n(C)n2)cc1OC` [Example 83], less than 300 nM. Turning to `Cn1nc(-c2ccc(C(=O)NC3CCC(F)(F)C3)cc2)nc1Nc1ccc2[nH]ncc2c1C1CC1` (stereo not drawn) [Example 298], the IC50 is less than 300 nM.

For `COc1cc(-c2nc(Nc3ccc4[nH]ncc4c3Cl)n(CCN3CCOCC3)n2)ccc1OCC(=O)NC(C)C` [Example 434], the IC50 was less than 300 nM. As for `CCNC(=O)N1CC=C(c2nc(Nc3ccc4[nH]ncc4c3C3CC3)n(C)n2)CC1` [Example 341, 4-[5-[(4-cyclopropyl-1H-indazol-5-yl)amino]-1-methyl-1,2,4-triazol-3-yl]-N-ethyl-3,6-dihydro-2H-pyridine-1-carboxamide], the IC50 lay within 300 to 3000 nM. For `Cc1cc(OCC(=O)NC(C)C)ccc1-c1nc(Nc2ccc3[nH]ncc3c2)n(C)n1` [Example 401], the IC50 is less than 300 nM. Consider `COCCn1nc(-c2ccc(C(=O)NCC(F)(F)F)cc2)nc1Nc1ccc2[nH]ncc2c1C` [Example 453], for which the IC50 was less than 300 nM.

In the case of `Cn1nc(-c2cccc(OC(F)(F)F)c2)nc1Nc1ccc2[nH]ncc2c1Cl` [Example 136], the IC50 was 300 to 3000 nM.

Take `COc1cc(-c2nc(Nc3ccc4[nH]ncc4c3Cl)n(-c3ccccn3)n2)ccc1OCC(=O)NC(C)C` [Example 151]: the IC50 was more than 10000 nM. In the case of `COc1cc(-c2nc(Nc3ccc4[nH]ncc4c3C)n(C)n2)cnc1C(=O)NC1CC1` [Example 420] it was 300 to 3000 nM; in that of `COc1cc(-c2nc(Nc3ccc4[nH]ncc4c3C)n(C(C)C)n2)ccc1OCC(=O)NC(C)C` [Example 450], less than 300 nM. Regarding `COc1cc(-c2nc(Nc3ccc4[nH]ncc4c3F)n(C)n2)ccc1C(=O)NC(C)C` [Example 183], the IC50 was less than 300 nM. In the case of `Cn1nc(-c2ccc(C(=O)Nc3ccccn3)cc2)nc1Nc1ccc2[nH]ncc2c1Cl` [Example 266] it was less than 300 nM; in that of `CC(C)NC(=O)CCOc1ccc(-c2nnc(Nc3ccc4[nH]ncc4c3)[nH]2)cc1` [Example 21], 300 to 3000 nM. With `Cn1nc(-c2ccc(C(=O)NCC(C)(C)C)cc2)nc1Nc1ccc2[nH]ncc2c1C1CC1` [Example 289] the figure was less than 300 nM; with `COc1cc(-c2nc(Nc3ccc4[nH]ncc4c3Cl)n(C)n2)ccc1OCC(=O)NC(C)C(F)(F)F` (stereo not drawn) [Example 210], less than 300 nM. In the case of `CCC(CO)NC(=O)c1ccc(-c2nc(Nc3ccc4[nH]ncc4c3C3CC3)n(C)n2)cc1` (stereo not drawn) [Example 310] it was less than 300 nM; in that of `Cn1nc(-c2ccc(C(=O)NC3(C)CC3)cc2)nc1Nc1ccc2[nH]ncc2c1C1CC1` [Example 294], less than 300 nM. Take `CC(C)NC(=O)C(C)Oc1ccc(-c2nnc(Nc3ccc4[nH]ncc4c3)[nH]2)cc1` (stereo not drawn) [Example 18]: the IC50 was in the range of 300 to 3000 nM. For the molecule `COc1cc(-c2nc(Nc3ccc4[nH]ncc4c3Cl)n(C)n2)ccc1OCC(=O)NC1(CO)CC1` [Example 211], the IC50 was less than 300 nM.

On to `CCNC(=O)c1ccc(-c2nc(Nc3ccc4[nH]ncc4c3C3CC3)n(C)n2)cc1` [Example 251, 4-[5-[(4-cyclopropyl-1H-indazol-5-yl)amino]-1-methyl-1,2,4-triazol-3-yl]-N-ethyl-benzamide], for which the IC50 is less than 300 nM. As for `O=C(NCC(F)(F)F)c1ccc(-c2nc(Nc3ccc4[nH]ncc4c3C3CC3)n(C3CCNCC3)n2)cc1` [Example 442], the IC50 is less than 300 nM.

For the molecule `O=C(COc1ccc(-c2nnc(Nc3ccc4[nH]ncc4c3)[nH]2)cc1)N[C@H]1CCNC1` [Example 158], the IC50 is less than 300 nM. As to `COc1cc(OC)cc(-c2nnc(Nc3ccc4[nH]ncc4c3)[nH]2)c1` [Example 3], the IC50 was in the range of 300 to 3000 nM. Regarding `Cn1nc(-c2ccc(C(=O)NCC3CC3)cc2)nc1Nc1ccc2[nH]ncc2c1C1CC1` [Example 283], the IC50 is less than 300 nM. In the case of `Cn1nc(-c2ccc(CO)cc2)nc1Nc1ccc2[nH]ncc2c1Cl` [Example 88] it was 300 to 3000 nM; in that of `Cc1cc(-c2nc(Nc3ccc4[nH]ncc4c3C)n(C)n2)ccc1C(=O)NCC(F)(F)F` [Example 417], less than 300 nM; in that of `COc1cc(-c2nc(Nc3ccc4[nH]ncc4c3Cl)n(C)n2)ccc1C(=O)NC1CNCC1(F)F` (stereo not drawn) [Example 365], less than 300 nM. As for `CC(C)NC(=O)COc1ccc(-c2nc(Nc3ccc4[nH]ncc4c3)n(C)n2)cc1Cl` [Example 250, 2-[2-chloro-4-[5-(1H-indazol-5-ylamino)-1-methyl-1,2,4-triazol-3-yl]phenoxy]-N-isopropyl-acetamide], the IC50 was less than 300 nM.

Turning to `COc1cc(-c2nc(Nc3ccc4[nH]ncc4c3Cl)n(C)n2)ccc1OCC(=O)NCC(C)O` (stereo not drawn) [Example 206], the IC50 was less than 300 nM. With `COc1ccc(-c2nc(Nc3ccc4[nH]ncc4c3Cl)n(C)n2)cc1Cl` [Example 86] the figure was less than 300 nM; with `CCNC(c1ccc(-c2nc(Nc3ccc4[nH]ncc4c3C3CC3)n(C)n2)cc1)C(F)F` (stereo not drawn) [Example 388], 300 to 3000 nM; with `COC(=O)[C@@H](NC(=O)c1ccc(-c2nc(Nc3ccc4[nH]ncc4c3C3CC3)n(C)n2)cc1)C(C)C` [Example 301], less than 300 nM. On to `Cn1nc(-c2ccc(C(=O)NC(C)(C)C)c(Cl)c2)nc1Nc1ccc2[nH]ncc2c1Cl` [Example 256], for which the IC50 was less than 300 nM. `CCNC(=O)c1ccc(-c2nc(Nc3ccc4[nH]ncc4c3)n(C)n2)c(F)c1` [Example 406]: the IC50 is less than 300 nM. In the case of `Cc1cc(-c2nc(Nc3ccc4[nH]ncc4c3Cl)n(C)n2)ccc1C(=O)NCC(F)(F)F` [Example 366], the IC50 was less than 300 nM. With `COc1cc(-c2nc(Nc3cnc4[nH]ncc4c3)n(C)n2)ccc1C(=O)NCC(F)(F)F` [Example 330] the figure was less than 300 nM. With `Cn1nc(-c2ccccc2O)nc1Nc1ccc2[nH]ncc2c1Cl` [Example 89] the figure was less than 300 nM. On to `Cn1nc(-c2ccc(OCCn3ccc(=O)cc3)cc2)nc1Nc1ccc2[nH]ncc2c1Cl` [Example 122], for which the IC50 is less than 300 nM. `COc1cc(-c2nc(Nc3ccc4[nH]ncc4c3C)n(C(C)C)n2)ccc1C(=O)NCC(F)(F)F` [Example 449]: the IC50 is less than 300 nM. With `O=C(COc1ccc(-c2nnc(Nc3ccc4[nH]ncc4c3)[nH]2)cc1)NC1CCCC1` [Example 160] the figure was less than 300 nM.
